Measured values taken from paper PMC9001717, “Tyrosine 121 moves revealing a ligandable pocket that couples catalysis to ATP-binding in serine racemase” (Communications Biology, 2022).

T1: human serine racemase (hSR) WT (Homo sapiens, UniProt Q9GZT4, C2D/C6D)
T1 construct: (His)6 (C); made in house; host or cells: E. coli (BL21-CodonPlus (DE3)-RIL for the mutants; the wild type is only 'as described[33]')
T1 sequence (Q9GZT4 1-340 C2D/C6D): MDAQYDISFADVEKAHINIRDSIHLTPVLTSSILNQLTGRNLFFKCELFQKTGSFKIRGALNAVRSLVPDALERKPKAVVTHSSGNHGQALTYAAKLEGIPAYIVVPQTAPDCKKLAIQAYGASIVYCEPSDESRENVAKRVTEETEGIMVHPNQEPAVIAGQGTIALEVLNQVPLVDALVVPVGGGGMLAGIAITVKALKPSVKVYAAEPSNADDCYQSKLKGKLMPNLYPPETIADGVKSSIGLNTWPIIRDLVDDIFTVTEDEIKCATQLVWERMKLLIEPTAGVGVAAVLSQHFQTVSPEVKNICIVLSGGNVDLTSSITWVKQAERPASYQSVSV

T2: hSR Y121A (Homo sapiens, UniProt Q9GZT4, C2D/C6D/Y121A)
T2 construct: (His)6 (C); made in house; host or cells: E. coli BL21-CodonPlus (DE3)-RIL
T2 sequence (Q9GZT4 1-340 C2D/C6D/Y121A): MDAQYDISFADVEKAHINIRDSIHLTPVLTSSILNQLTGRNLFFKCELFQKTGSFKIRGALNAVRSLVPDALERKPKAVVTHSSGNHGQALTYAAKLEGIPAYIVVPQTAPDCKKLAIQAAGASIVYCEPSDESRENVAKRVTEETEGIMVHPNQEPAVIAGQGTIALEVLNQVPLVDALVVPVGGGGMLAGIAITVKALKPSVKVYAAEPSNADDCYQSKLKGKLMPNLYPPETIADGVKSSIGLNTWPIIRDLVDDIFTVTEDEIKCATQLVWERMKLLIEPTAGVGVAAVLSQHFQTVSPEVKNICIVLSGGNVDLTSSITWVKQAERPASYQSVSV

T3: hSR Y121F (Homo sapiens, UniProt Q9GZT4, C2D/C6D/Y121F)
T3 construct: (His)6 (C); made in house; host or cells: E. coli BL21-CodonPlus (DE3)-RIL
T3 sequence (Q9GZT4 1-340 C2D/C6D/Y121F): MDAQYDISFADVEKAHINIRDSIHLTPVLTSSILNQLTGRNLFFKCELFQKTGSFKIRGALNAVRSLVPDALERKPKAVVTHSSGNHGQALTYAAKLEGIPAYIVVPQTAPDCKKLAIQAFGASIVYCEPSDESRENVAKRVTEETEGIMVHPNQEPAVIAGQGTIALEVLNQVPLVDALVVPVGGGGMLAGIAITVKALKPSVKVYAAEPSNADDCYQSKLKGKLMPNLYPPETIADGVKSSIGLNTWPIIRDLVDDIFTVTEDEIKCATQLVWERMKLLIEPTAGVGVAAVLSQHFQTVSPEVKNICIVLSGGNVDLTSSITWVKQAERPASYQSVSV

T4: hSR Y121G (Homo sapiens, UniProt Q9GZT4, C2D/C6D/Y121G)
T4 construct: (His)6 (C); made in house; host or cells: E. coli BL21-CodonPlus (DE3)-RIL
T4 sequence (Q9GZT4 1-340 C2D/C6D/Y121G): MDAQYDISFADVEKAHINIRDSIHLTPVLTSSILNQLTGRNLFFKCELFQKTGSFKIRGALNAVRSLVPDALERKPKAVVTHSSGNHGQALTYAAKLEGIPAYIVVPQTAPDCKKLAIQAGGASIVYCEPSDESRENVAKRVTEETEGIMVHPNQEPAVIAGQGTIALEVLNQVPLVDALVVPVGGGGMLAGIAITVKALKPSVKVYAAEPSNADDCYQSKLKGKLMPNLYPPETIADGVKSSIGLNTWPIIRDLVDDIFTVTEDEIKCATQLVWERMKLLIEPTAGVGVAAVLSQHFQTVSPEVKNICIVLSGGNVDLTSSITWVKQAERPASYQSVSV

T5: hSR Tyr 121 pocket (Homo sapiens, UniProt Q9GZT4, C2D/C6D)
T5 construct: (His)6 (C); made in house; host or cells: E. coli (BL21-CodonPlus (DE3)-RIL for the mutants; the wild type is only 'as described[33]')
T5 sequence (Q9GZT4 1-340 C2D/C6D): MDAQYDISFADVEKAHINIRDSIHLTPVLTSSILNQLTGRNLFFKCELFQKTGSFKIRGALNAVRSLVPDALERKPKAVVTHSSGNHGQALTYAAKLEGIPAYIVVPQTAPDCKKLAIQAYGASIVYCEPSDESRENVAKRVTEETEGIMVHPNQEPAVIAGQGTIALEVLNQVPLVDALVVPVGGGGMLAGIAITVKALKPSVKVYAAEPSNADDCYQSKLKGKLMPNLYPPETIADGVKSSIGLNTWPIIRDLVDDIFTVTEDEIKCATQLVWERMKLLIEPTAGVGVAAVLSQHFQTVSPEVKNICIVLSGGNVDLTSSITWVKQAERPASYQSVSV


Legend:
[1] = molecular target: T1, human serine racemase (hSR) WT; assay: L- to D-Ser racemisation coupled luminescence assay, wild-type hSR; type: biochemical; settings: for inhibition of SR, in words: assay data for compounds observed to displace Tyr 121; for inhibition at 16700 µM: maximum compound concentration 16.7mM, read-out: inhibition at maximum concentration used in assay; for IC50: wild-type hSR, 1 mM ATP, 2 mM L-serine, 16.7% DMSO, ~ = extrapolated with artificial 100% point at 1 M
Description: (§1) The ability of compounds to inhibit the L to D-Ser racemisation activity of hSR was measured in a coupled assay. In the assay, hSR converts L-Ser to D-Ser. The D-Ser is then converted into pyruvate, ammonia and hydrogen peroxide using D-amino acid oxidase. Next, the hydrogen peroxide reacts with luminol in the presence of horseradish peroxidase, producing luminescent by-product. In the assay malonate was used as a control compound and gave 100% inhibition – results for XChem compounds are shown in Supplementary Table 4 and in supplementary Fig. 12. The activity of the wild-type and the three Y121 mutants, Y121F, Y121A and Y121G was measured at six ATP concentrations (1 mM, 0.5 mM, 0.25 mM, 0.125 mM, 0.062 mM and 0.031 mM) as shown in supplementary Fig. 11.
(§2) The inhibition of hSR activity was measured using a luminescence assay in a 384 well plate (flat bottom white, Corning). Initially, each well contained 100 mM Tris pH 8.5, 0.05% Pluronic f-127 (VWR), 1 mM MgCl2, 1 mM ATP (disodium salt, Fisher), 10 µM PLP, 0.3 nM hSR, 2 mM L-serine and compound at 16.67 mM to 0.0077 mM (see supplementary Fig. 12) and had 16.7% DMSO concentration. The plate was incubated at RT with shaking for 30 min. After this, the reaction was stopped using a detection mix. The final well concentration was 100 mM Tris pH 8.5, 0.05% Pluronic f-127 (VWR), 1 mM EDTA (Fisher), 0.25 U/mL horseradish peroxidase, 0.5 U/mL D-amino acid oxidase and 25 µM Luminol (Insight Biotechnology) and 8.4% DMSO. The plate was left to incubate covered and shaking for 10 min. The plate was then read using a PHERAstar (BMG) plate reader. For the ATP dependant activity data, the method was kept the same, except for varying the concentration of ATP.
(§3) The relative light units read (x) on the PHERAstar were converted into percentage inhibition (PI) using the equation: PI=100x[1−(x−Min)/(Max−Min)] where min is negative control (100% inhibition) and max is the positive control (no inhibition). The IC50s were calculated with GraphPad (Prism 8.3.1, Graphpad Software, San Diego CA).

[2] = molecular target: T2, hSR Y121A; assay: L- to D-Ser racemisation coupled luminescence assay, Y121A mutant; type: biochemical; settings: 1 mM ATP, 2 mM L-serine, 16.7% DMSO, ~ = extrapolated
Description: as §1, §2, §3

[3] = molecular target: T3, hSR Y121F; assay: L- to D-Ser racemisation coupled luminescence assay, Y121F mutant; type: biochemical; settings: 1 mM ATP, 2 mM L-serine, 16.7% DMSO, ~ = extrapolated
Description: as §1, §2, §3

[4] = molecular target: T4, hSR Y121G; assay: L- to D-Ser racemisation coupled luminescence assay, Y121G mutant; type: biochemical; settings: 1 mM ATP, 2 mM L-serine, 16.7% DMSO, ~ = extrapolated
Description: as §1, §2, §3

[5] = molecular target: T5, hSR Tyr 121 pocket; assay: XChem crystallographic fragment screen; type: binding; parameters: key: A = best; D = worst; settings: crystals soaked with 150 mM fragment
Description: A crystallographic fragment screen was performed on holo crystals using the XChem screening strategy at Diamond Light Source[58]. For the XChem experiments, holo crystals were generated at 20 °C in 96-well Swissci 3-drop, sitting drop plates (Molecular Dimensions) using 14 mg/mL SR plus fresh 5 mM DTT dispensed in a 3:2 ratio (300 nL protein + 200 nL reservoir) equilibrated against 20 μL reservoir containing 100 mM MES pH 6.2, 100 mM Calcium chloride, 5% ethylene glycol and 20% PEG Smear Broad (Molecular Dimensions). This crystallisation condition differs from that reported in a recent crystal structure of holo SR (6SLH) which was crystallised against reservoir/precipitate of 100 mM Bis-Tris pH 6.5, 15% PEG 3350, 250 mM MgCl2[33]. ATP was present in the protein delivery buffer at 1.25-fold times the protein subunit concentration.
Crystal soaking, harvesting, mounting, and data collections were performed at the Diamond Light Source XChem facilities and beamline I04-1 through the XChem workflow[50],[59]. […] The full compound screen was performed on 600 crystals which were each soaked with 150 mM fragment compound (30% v/v of 500 mM stocks in DMSO) for ≥1.5 h before crystals were harvested and mounted on the fast microscope crystal mounting system. The fragments screened were obtained from the Diamond-SGC-iNext Poised (DSiP) XChem library.
The structure of the representative XChem holo crystal (20% DMSO soak, no fragment) presented in this paper (6ZUJ) was solved by rigid body refinement based on a previous structure (6SLH)[33] and refined with phenix.refine[71] and REFMAC5[68],[72] and modelled in coot[69]. Initial analysis of approx. 600 ligand-soaked crystals was carried out using XChemExplorer[59] a data-management and workflow tool to support large-scale simultaneous analysis of protein–ligand complexes during structure-based ligand discovery. The workflow flagged 95 structures with binding events, 44 of which were classified as interesting, spanning four distinct binding sites. Five SR structures from the XChem screen are described in this paper that are representative examples of the four major binding sites. One compound, 2-x0406, occupied not just one of the four major binding sites, but also occupied a second site adjacent to the tyrosine 121 pocket.

[6] = test system: rat brain SR; parameters: method as in PMID 30918891, PMID 12021263; settings: 1 mM ion; cited from earlier work
[7] = test system: SR; settings: ref 49; cited from earlier work
[8] = test system: SR; parameters: method as in supplementary refs 2, 11-32; settings: literature summary; ref supplementary refs 2, 11-32; cited from earlier work

Molecule | IC50 [1] [mM] | IC50 [2] [mM] | IC50 [3] [mM] | IC50 [4] [mM] | Initial rank from examination of XChem electron density/fit [5] | other results
Nc1ccccc1N1CCOCC1 [3-x0458] | 0.0106 | 0.0094 | 0.0123 | 0.0234 |  | inhibition of SR, in words [1]: reasonably potent inhibitors; inhibition at 16700 µM [1]: 100%
O=C(CCCc1ccccc1)N1CCOCC1 [7-x0109] | ~12.5 | ~22.3 | ~20.7 | ~26 |  | 
CC(=O)NCCc1ccccc1C [1-x0495] | ~19.5 | ~23.6 |  |  | A | inhibition at 10000 µM ([1]; 10mM, value of the originally submitted manuscript, quoted in peer review file): 102%
[Ca+2] [Ca^2+] |  |  |  |  |  | SR activity in the presence of the ion [6]: 134%
madecassoside |  |  |  |  |  | IC50 [7]: 26 µM; Inhibition mode [8]: Competitive
CNCC1COc2ccccc2O1 (stereo not shown) [6-x0513] |  |  |  |  | A | 
CC(=O)NC1CNc2ccccc2C1 (stereo not shown) [4-x0482] | 0.0051 | 0.0033 | 0.0032 | 0.0044 |  | inhibition of SR, in words [1]: reasonably potent inhibitors; inhibition at 16700 µM [1]: 100%
CS(=O)(=O)Cc1nc2ccccc2[nH]1 [15-x0306] | ~12.8 | ~16.1 |  |  |  | 
NC(=O)c1cnc(C(F)(F)F)nc1 [5-x0501] |  |  |  |  | D | 
DISC1: Disrupted-In-Schizophrenia-1 (protein, UniProt Q9NRI5 1-854, looked up) Disrupted in schizophrenia 1 …: MPGGGPQGAPAAAGGGGVSHRAGSRDCLPPAACFRRRRLARRPGYMRSSTGPGIGFLSPAVGTLFRFPGGVSGEESHHSESRARQCGLDSRGLLVRSPVSKSAAAPTVTSVRGTSAHFGIQLRGGTRLPDRLSWPCGPGSAGWQQEFAAMDSSETLDASWEAACSDGARRVRAAGSLPSAELSSNSCSPGCGPEVPPTPPGSHSAFTSSFSFIRLSLGSAGERGEAEGCPPSREAESHCQSPQEMGAKAASLDGPHEDPRCLSRPFSLLATRVSADLAQAARNSSRPERDMHSLPDMDPGSSSSLDPSLAGCGGDGSSGSGDAHSWDTLLRKWEPVLRDCLLRNRRQMEVISLRLKLQKLQEDAVENDDYDKAETLQQRLEDLEQEKISLHFQLPSRQPALSSFLGHLAAQVQAALRRGATQQASGDDTHTPLRMEPRLLEPTAQDSLHVSITRRDWLLQEKQQLQKEIEALQARMFVLEAKDQQLRREIEEQEQQLQWQGCDLTPLVGQLSLGQLQEVSKALQDTLASAGQIPFHAEPPETIRSLQERIKSLNLSLKEITTKVCMSEKFCSTLRKKVNDIETQLPALLEAKMHAISGNHFWTAKDLTEEIRSLTSEREGLEGLLSKLLVLSSRNVKKLGSVKEDYNRLRREVEHQETAYETSVKENTMKYMETLKNKLCSCKCPLLGKVWEADLEACRLLIQSLQLQEARGSLSVEDERQMDDLEGAAPPIPPRLHSEDKRKTPLKVLEEWKTHLIPSLHCAGGEQKEESYILSAELGEKCEDIGKKLLYLEDQLHTAIHSHDEDLIQSLRRELQMVKETLQAMILQLQPAKEAGEREAAASCMTAGVHEAQA |  |  |  |  |  | Inhibition mode [8]: Stabilises SR
